Data as given in patent publication US20170215419A1, “ANTHRANILAMIDE SEED TREATMENT COMPOSITIONS AND METHODS OF USE” (priority 2014, published 2017).

Experiments:
wireworms = experiment: Growth chamber wireworm bioassay on treated corn seed (FIG. 9); format: in vivo, Melanotus spp.; details: 250 to 750 μg AI/seed; corn at V3-V4; vs untreated check
Method: In addition, the efficacy of corn seed treated with chlorantraniliprole to protect seeds and seedlings from soil pests such as wireworms was determined at a growth chamber. A total of 8 repetitions were conducted and the following evaluations were observed:
Evaluations: 1. Emergence; 2. Wireworm damaged plants; 4. Wireworm mortality; 5. Fresh plan weight
Bioassays were conducted in a growth chamber in using field-collected Melanotus spp. wireworms. […] weighted wireworms were individually placed into plastic pots containing filtered field-collected soil and one corn seed for a total of 48 wireworms in 8 pots for each treatment The containers were maintained at 20±2° C., 40 to 70% RH, and a photoperiod of 10:14 (L:D), and were watered daily.
The following seed treatment combinations were used and the results are shown in FIG. 9: Chlorantraniliprole at 250 to 750 μg AI/seed; thiamethoxam (IST) at 250 μg AI/seed; and clothianidin (+Bacillus firmus 1-1582) at 1250 μg AI/seed.

black cutworms [1] = experiment: Black cutworm mortality after 10 DAI, leaf feeding bioassay (Table 4); format: in vivo, Agrotis ipsilon
Method: (§1) Efficacy of chlorantraniliprole against high pressure of black cutworms, and plant stand protection (15 DAP) was tested (FIG. 5). In addition, efficacy of chlorantraniliprole for healthier stand and longer seedling protection against black cutworms (9 DAI) was also tested (FIG. 6). See also Tables 3 and 4 for increased mortality rates of cutworms with chlorantraniliprole alone and in combination with other insecticides. Mortality of 3rd instar black cutworms, which were exposed to corn leaf samples in in-vivo leaf feeding bioassays, was recorded at specific evaluation dates. The leaf samples were collected from treated corn seed according to the treatment in Tables 3-4.

wireworm [2] = experiment: Field efficacy against wireworm and impact on corn yield, vigor and stand (FIG. 1, 2); format: in vivo
Method: Efficacy of chlorantraniliprole against wireworm (30 DAP) and impact on corn yield were tested (FIG. 1) based on data from 4 Locations. Unless indicated otherwise in this Example or in any other Example herein, “BASE ST” included Fludioxonil, Mefenoxam, Azoxystrobin, Thiabendazole (fungicides), Thiamethoxam (insecticide) and biological amendments (B. subtilis, and B. simplex). The BASE ST may also include other fungicides.
Efficacy of chlorantraniliprole was also tested against high wireworm pressure locations for plant vigor and yield and stand protection (FIG. 2 A-B). “FST” indicates fungicide seed treatment.
The chlorantraniliprole was applied at a concentration of 0.25 mg ai/seed and other commercially available insecticides and/or fungicides were applied at the labeled rates. […] In an embodiment, the BASE ST included thiamethoxam at 250 μg AI/seed.

black cutworms [3] = experiment: Field efficacy against high pressure of black cutworms, plant stand protection (FIG. 5, 6); format: in vivo, Agrotis ipsilon
Method: as §1
(§2) All treatments included a combination of fungicides (Fludioxonil, Mefenoxam, Azoxystrobin, Thiabendazole). Soil Texture was fine clay loam; insect species: Agrotis ipsilon; infestation: 2, 3rd instar larva/plant; Plot size: 6 rows×20 feet; Seeding rate: 39,000/acre; Experimental design: Randomized Complete Block (RCB); 9 trtms×4 rep.

white grub = experiment: Efficacy against white grub and impact on corn yield (FIG. 3, 4); format: in vivo, Japanese Beetle larvae; details: added to BASE ST, compared to BASE ST alone
black cutworms [4] = experiment: Cutworm mortality and residual control, leaf feeding bioassay on leaves from treated corn seed (Table 3); format: in vivo, Agrotis ipsilon
Method: as §1, §2

wireworm [5] = experiment: Corn yield, stand and runts on fields with wireworm pressure (Tables 5, 6); format: in vivo; details: for Yield bu/ac: 250 μg AI/seed
[6] = seed treatment 500 μg AI/seed (clothianidin 500)
[7] = added to BASE ST, compared to FST alone, high wireworm pressure
[8] = seed treatment 250 μg AI/seed, 3rd instar black cutworms on corn leaf samples
[9] = seed treatment 250 μg AI/seed, residual control
[10] = Table 6, fields with constant wireworm pressure, N = 7

## CNC(=O)c1cc(Cl)cc(C)c1NC(=O)c1cc(Br)nn1-c1ncccc1Cl [Chlorantraniliprole, 3-bromo-N-[4-chloro-2-methyl-6-[(methylamino)carbonyl]phenyl]-1-(3-chloro-2-pyridinyl)-1H-pyrazole-5-carboxamide]
wireworms
  fresh plant weight: significantly higher plant weight than the untreated check/control
Black cutworms [1]; seed treatment 250 μg AI/seed
  Mortality %: 100.00%
Black cutworms [1]; [6]
  Mortality %: 100.00%
Black cutworms [1]; seed treatment 750 μg AI/seed
  Mortality %: 100.00%
Wireworm [2]; 0.25 mg ai/seed added to BASE ST, compared to BASE ST alone
  corn yield: yield increase
Wireworm [2]; 0.25 mg ai/seed added to BASE ST, compared to BASE ST alone, 30 DAP, 4 locations
  wireworm count per 10 plants: significantly reduced
Wireworm [2]; [7]
  plant vigor: significantly increased
  stand protection: protected stand
Wireworm [2]; added to BASE ST, compared to FST alone, high wireworm pressure (FIG. 2A)
  yield: increased significantly
Black cutworms [3]; 9 DAI (FIG. 6)
  stand and seedling protection against black cutworms: increased healthier stand and longer seedling protection
Black cutworms [3]; compared to FST alone, black cutworm
  reduction in plant mortality: 62%
Black cutworms [3]; high black cutworm pressure, 15 DAP
  black cutworm damage to corn plants: significantly reduced
White grub
  grain yield: increased grain yield
White grub; 30 DAP, 3 locations
  white grub count per 10 plants: significantly reduced
Black cutworms [4]; [8]
  Mortality % 12 DAP: 100.00%
Black cutworms [4]; [9]
  Mortality % 39 DAP: 32.95%
Black cutworms [4]; [6]
  Mortality % 12 DAP: 100.00%
  Mortality % 39 DAP: 31.25%
Black cutworms [4]; seed treatment 750 μg AI/seed
  Mortality % 12 DAP: 100.00%
  Mortality % 39 DAP: 21.11%
Wireworm [5]; Table 5, fields with wireworm pressure
  Yield bu/ac: 172.3 bu/ac
Wireworm [5]; [10]
  Yield bu/ac: 164.3 bu/ac
Wireworm [5]; locations with wireworm infestations, chlorantraniliprole 250 to 750 μg AI/seed alone or with thiamethoxam 250 μg AI/seed
  corn grain yield: increased corn grain yield

## CN/C(=N\[N+](=O)[O-])NCc1cnc(Cl)s1 [Clothianidin, reference compound]
Black cutworms [1]; [6]
  Mortality %: 93.75%
Black cutworms [4]; [6]
  Mortality % 12 DAP: 97.92%
  Mortality % 39 DAP: 25.00%

## CN1COCN(Cc2cnc(Cl)s2)/C1=N\[N+](=O)[O-] [Thiamethoxam, reference compound]
Black cutworms [1]; seed treatment 250 μg AI/seed
  Mortality %: 22.92%
Black cutworms [4]; [8]
  Mortality % 12 DAP: 95.83%
Black cutworms [4]; [9]
  Mortality % 39 DAP: 31.25%
Wireworm [5]; [10]
  Yield bu/ac: 173.3 bu/ac
Wireworm [5]; seedling stage, wireworms, each active at 250 μg AI/seed
  runts: 8.8%
